# Like-named read-outs stand apart in the source and are kept apart here.
# Experiments:
# [1] = test system: Caenorhabditis elegans young adults; test: In vitro activity on C. elegans; format: cell-based
# [2] = test system: H. contortus fourth-stage larvae (L4s) development; test: Dose-response evaluation, L4 development; format: cell-based, Haemonchus contortus; conditions: for IC50: Haemonchus contortus, 168 h
# Description: These evaluations were carried out to estimate the half-maximal inhibitory concentrations (IC50 values) for hit compounds against H. contortus xL3s. With reference to the two positive-control compounds (monepantel and moxidectin), IC50 values for compounds were estimated ([Preston et al., 2015]; [Taki et al., 2021a]) using two-fold serial dilution (in LB*; 9 points from 50 μM to 0.2 µM) in 96-well plates (cat. no. 3596; Corning) with larvae at a density of 300 H. contortus xL3s in 100 µl per well. Plates containing H. contortus xL3s were incubated at 38°C, 10% (v/v) CO2 and >90% relative humidity.
# The motility of H. contortus xL3s and L4 development were measured following 168 h of incubation with compound ([Taki et al., 2021a]). Compound concentrations were log10-transformed and fitted using a variable slope four-parameter equation, constraining the highest value to 100% employing a least squares (ordinary) fit model using GraphPad Prism software (v.9.1.2). Compounds were tested by three independent experiments in triplicate. A one-way analysis of variance (ANOVA) with a Tukey’s multiple comparison test or an unpaired t-test was used to establish statistically significant differences in larval motility or development.
# [3] = Cellular toxicity in HepG2 cells (crystal violet); format: cell-based, human; conditions: human, HepG2 human hepatoma cells; HepG2, 48 h; read-out: Cytotoxicity (48 h) CC50
# Description: (§1) The toxicities of compounds on cell and mitochondria were assessed to estimate their half-maximal cytotoxic concentrations (CC50) and half-maximal mitotoxic concentrations (MC50), respectively. HepG2 human hepatoma cells were seeded into wells of a 96-well plate at a density of 5.5 × 10^4 cells per well in 80 µl of Dulbecco’s modified eagle medium (DMEM; with GlutaMax™ cat. no. 10566016 or 4 mM L-glutamine cat. no. 11966025; Thermo Fisher Scientific), supplemented with 25 mM D-glucose (cytotoxicity) or D-galactose (mitotoxicity), 10% (v/v) inactivated foetal bovine serum (iFBS), 100 IU/ml of penicillin, 100 μg/ml of streptomycin and 0.25 μg/ml of amphotericin B (designated DMEM*). Cells were allowed to adhere for 16 h at 37°C and 5% (v/v) CO2 at > 90% relative humidity, then, incubated for 48 h with individual, serially-diluted compounds (two-fold serial dilution in DMEM*; […]) in a final volume of 100 µl. For the assessment of toxicity on mitochondria, cells were starved of serum (DMEM* without iFBS) for 4 h prior to the 48 h-incubation with compounds ([Swiss and Will, 2011]; [Kamalian et al., 2015]). Two positive control compounds, doxorubicin (cytotoxic control) and M-666 (mitotoxic control) were each added to three individual wells in each 96-well plate at a single concentration of 10 µM. DMEM* + 0.25% (v/v) DMSO was added to 12 wells in each plate as negative controls. Monepantel and moxidectin were also serially diluted — prepared in the same manner as test compounds — and used as (“non-toxic”) reference compounds. After 48 h of incubation, cell viability was determined by the crystal violet staining method ([Śliwka et al., 2016]). The absorbance (595 nm) of treated cells was normalised with reference to the negative control (100% viability). To determine the CC50 and MC50 values, compound concentrations were log10-transformed, baseline-corrected using a respective positive control (doxorubicin or M-666) and fitted using a variable slope four-parameter equation with a least squares (ordinary) fit model using GraphPad Prism software (v.9.1.2). Compounds and controls were tested in triplicate.
# [4] = test system: HepG2 human hepatoma cells; test: Cellular toxicity in HepG2 cells (crystal violet); format: cell-based; conditions: HepG2 cells, concentrations of up to 100 µM
# Description: as §1
smiles,measurement,setting,value
"CCCc1ccc(-c2nc(-c3cccs3)no2)cc1 [UMW-868, 5-(4-propylphenyl)-3-(2-thienyl)-1,2,4-oxadiazole]",motility reduction of C. elegans,"[1]; 10 µM, at 40 h",53.5%
same,IC50,"[1]; Caenorhabditis elegans, read-out: IC50 (C. elegans motility)",9.9 µM
same,IC50,"[2]; analog series, read-out: L4 development inhibition (IC50 in µM)",50 µM
same,IC50,"[2]; larval development inhibition, hit evaluation, read-out: IC50 (development)",5.8 µM
same,abnormal phenotypes in affected xL3s,[2]; dose-response evaluation,curved or evisceration
same,CC50 at 48 h,[3],> 50 µM
same,cytotoxicity (in words),[4],did not display any appreciable cytotoxicity

# — publication PMC9616048, “Thermal proteome profiling reveals Haemonchus orphan protein HCO_011565 as a target of the nematocidal small molecule UMW-868” (Frontiers in Pharmacology, 2022)
